Experimental data reported in PubChem BioAssay (NCI).
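Compound exposure: 48 hours, 5 concentrations, 96-well plates. TGI: total growth inhibition.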

Legend:
Experiment in all cases: NCI-60 cell line screen, 48 h
[1] = system: SN12C renal
[2] = system: MDA-MB-435
[3] = system: BT-549 breast
[4] = system: CCRF-CEM leukemia
[5] = system: SF-539 CNS
[6] = system: MALME-3M melanoma
[7] = system: OVCAR-3 ovarian
[8] = system: T-47D breast
[9] = system: HS 578T breast
[10] = system: SK-MEL-2 melanoma
[11] = system: NCI-H522 lung
[12] = system: 786-0 renal
[13] = system: UO-31 renal
[14] = system: KM12 colon
[15] = system: MCF7 breast
[16] = system: SF-268 CNS
[17] = system: MDA-MB-231 breast
[18] = system: HOP-92 NSCLC

SMILES | TGI [1] [µM] | TGI [2] [µM] | TGI [3] [µM] | TGI [4] [µM] | TGI [5] [µM] | TGI [6] [µM] | TGI [7] [µM] | TGI [8] [µM] | TGI [9] [µM] | TGI [10] [µM] | TGI [11] [µM] | TGI [12] [µM] | TGI [13] [µM] | TGI [14] [µM] | TGI [15] [µM] | TGI [16] [µM] | TGI [17] [µM] | TGI [18] [µM]
N#Cc1ncn(CCO)c1N | > 100 | > 100 | > 100 | > 100 | > 100 | > 100 | > 100 | > 100 | > 100 | > 100 | > 100 | > 100 | > 100 | > 100 | > 100 | > 100 | > 100 | –
COc1cc(COC(=O)N2CC=CC2C(=O)O)c([N+](=O)[O-])cc1OC (stereo not given) | > 100 | > 100 | > 100 | > 100 | > 100 | > 100 | > 100 | > 100 | > 100 | – | – | > 100 | > 100 | > 100 | > 100 | > 100 | – | > 100
Cc1nc(C)c(N2CCN(C(=O)O)CC2)c(=O)[nH]1 | > 100 | > 100 | > 100 | > 100 | > 100 | > 100 | > 100 | > 100 | > 100 | – | > 100 | > 100 | > 100 | > 100 | > 100 | > 100 | > 100 | > 100
CCCCCCNC(=S)N/N=C(\C)c1ccccn1 | 14 | 17.8 | 16.8 | – | 11.9 | 16.8 | 21.8 | 23.4 | > 100 | 22.7 | 19.8 | 12.1 | 10.9 | 8.97 | 19 | 17.8 | 14.4 | 2.25
CC(=O)Oc1c(OC(C)C)c(C)c(O[Si](C(C)C)(C(C)C)C(C)C)c2[nH]c3ccccc3c12 | > 100 | > 100 | > 100 | > 100 | > 100 | – | > 100 | > 100 | > 100 | > 100 | > 100 | > 100 | > 100 | > 100 | > 100 | > 100 | > 100 | > 100
O=c1cc(NNc2ccccc2F)[nH]c(=O)[nH]1 | – | – | 31.8 | 47.6 | 30.7 | 33.3 | 31.6 | 18 | 63.4 | 30.8 | 31.5 | 28.7 | 24.6 | 28.7 | 21.2 | 35.2 | 29.9 | 29.2
CN=C(N)N=Nc1c(O)[nH]c2ccccc12 | > 100 | > 100 | > 100 | > 100 | – | > 100 | – | > 100 | > 100 | > 100 | > 100 | > 100 | > 100 | > 100 | > 100 | > 100 | > 100 | > 100
